Key:
[1] = tested on: nerve growth factor production by L-M cells; test: Enhancement of nerve growth factor production in L-M cells (enzyme immunoassay); format: cell-based, Rat
Procedure: Rat fibroblast L-M cells (ATCC CCL-1.2) were suspended in a M199 medium (Gibco) containing 0.5% Bacto Peptone (Gibco) at a concentration of 1.0 x 10^5 cells/ml. 1 ml of the suspension was inoculated into each well of a 24-well plate. The cells were cultured aseptically. After culturing for 2 days, the medium was removed and substituted with a M199 medium containing 0.5% bovine serum albumin (Sigma). Then, cyclopentenone (final concentration of 1 to 25 µM), 4HCP (Aldrich) (final concentration of 12.5µM) or dipropionylcyclopentenone (final concentration of 3.1 to 9.4 µM) was added thereto. […]
After completion of the incubation, the concentration of nerve growth factor in the culture was measured by enzyme immunoassay (NGF Emax Immuno Assay System: Promega). […]

[2] = tested on: HGF production, MRC-5 cells; test: Enhancement of HGF production in MRC-5 cells (ELISA); format: cell-based, Human; conditions: for Increase in HGF production: 24 hours, negative control defined as 100% (7.2 ng/ml)
Procedure: MRC-5 cells (CCL171, Dainippon Pharmaceutical) were suspended in a DME medium (Bio Whittaker) containing 10% fetal calf serum at a concentration of 1 x 10^5 cells/ml. 500 µl of the suspension was placed into a 48-well cell culture plate. After culturing at 37°C in the presence of 5% CO2 for 24 hours, the medium was exchanged for a DME medium containing 1% fetal calf serum. Then, one of samples was added thereto. The plate was incubated for additional 24 hours. The medium was then recovered, and the amount of HGF in the culture medium was measured using Quantikine Human Hepatocyte Growth Factor (HGF) ELISA Kit (Funakoshi). The amount of HGF produced was expressed defining a negative control as 100%. In this case, the amount of HGF produced for the negative control was 7.2 ng/ml. Cyclopentenone (at a final concentration of 20, 40 or 160 µM), GM (at a final concentration of 20, 40, 80 or 160 µM), or dipropionylcyclopentenone (at a final concentration of 32 or 64 µM) was added as a sample. As a negative control, distilled water was added in the same volume as the sample. As a positive control, prostaglandin E1 was added at a final concentration of 0.01, 0.1, 1 or 10 µM.

[3] = tested on: human insulin-like growth factor-1 (h-IGF-1) production in Hs68 cells; test: Enhancement of h-IGF-1 production in Hs68 cells (ELISA); format: cell-based; conditions: Example 3-(2): 10 to 20 µM
Procedure: (1) Human newborn foreskin […] Hs68 cells (ATCC CRL-1635) were cultured in a D-MEM medium (Bio Whittaker) containing 10% fetal calf serum (FBS; Gibco BRL) in the presence of 5% CO2 at 37°C to saturation in a culture vessel. Then, the cells were suspended in the medium at a concentration of 3 x 10^5/ml using a trypsin-EDTA solution (Bio Whittaker). 200 µl of the suspension was dispensed into each well of a 96-well microtiter plate. When the cells were almost saturated in the culture vessel after culturing for 5 days, the medium was discarded and a medium containing 4HCP at a concentration of 40, 100 or 200 µM was added thereto. The culture supernatant was recovered at intervals of 24 hours for up to 96 hours. The effect of 4HCP on enhancement of human insulin-like growth factor-1 (h-IGF-1) production in Hs68 cells was determined using ELISA-Kit for h-IGF-1 (Diagnostic System Labo).
(2) Hs68 cells were cultured in a D-MEM medium containing 10% fetal calf serum in the presence of 5% CO2 at 37°C to saturation in a culture vessel. Then, the cells were suspended in the medium at a concentration of 3 x 10^5/ml using a trypsin-EDTA solution. 200 µl of the suspension was dispensed into each well of a 96-well microtiter plate. When the cells were almost saturated in the culture vessel after culturing for 5 to 7 days, the medium was discarded and the medium containing cyclopentenone or GM at a concentration of 0, 2.5, 5, 10 or 20 µM was added thereto. The culture supernatant was recovered at 1, 3, 6, 12, 24 or 48 hours. The effect of cyclopentenone or GM on the production (enhancement of expression) of h-IGF-1 in Hs68 cells was determined using ELISA-Kit for h-IGF-1. […] The amount of h-IGF-1 produced 6 hours after the addition was about twice the amount for the control with no addition. […] (3) Hs68 cells were cultured in a D-MEM medium containing 10% fetal calf serum in the presence of 5% CO2 at 37°C to saturation in a culture vessel. Then, the cells were suspended in the medium at a concentration of 3 x 10^5/ml using a trypsin-EDTA solution. 200 µl of the suspension was dispensed into each well of a 96-well microtiter plate. When the cells were almost saturated in the culture vessel after culturing for 5 to 7 days, the medium was discarded and the medium containing 4HCP, a compound of formula (XVIII) (4HCP-GSH) or glutathione (GSH) at a concentration of 0, 25, 50, 100 or 200 µM was added thereto. The culture supernatant was recovered at 1, 3, 6, 12, 24 or 48 hours. The effect on the production (enhancement of expression) of h-IGF-1 in Hs68 cells was determined using ELISA-Kit for h-IGF-1. As a result, when 4HCP was added at a concentration of 25 to 200 µM, h-IGF production in Hs68 cells became maximal at 1 hour and decreased thereafter as the time went by. […] Significant enhancement of h-IGF-1 production was observed when cultured for 10 to 30 minutes. […]

mouse = test: Single oral dose toxicity in mouse; format: in vivo; conditions: mouse, in vivo, po, 100 mg/kg

SMILES: O=C1C=CC(O)C1O (centres unmarked) [cyclopentenone, 4,5-dihydroxy-2-cyclopenten-1-one]
- Nerve growth factor concentration ([1]; 1 µM, 24 hours, 0 µM control 0.570): 0.700 ng/mL
- Nerve growth factor concentration ([1]; 2.5 µM, 24 hours, 0 µM control 0.570): 0.740 ng/mL
- Nerve growth factor concentration ([1]; 5 µM, 24 hours, 0 µM control 0.570): 0.870 ng/mL
- Nerve growth factor concentration ([1]; 7.5 µM, 24 hours, 0 µM control 0.570): 0.900 ng/mL
- Nerve growth factor concentration ([1]; 10 µM, 24 hours, 0 µM control 0.570): 1.080 ng/mL
- Nerve growth factor concentration ([1]; 12.5 µM, 24 hours, 0 µM control 0.570): 1.340 ng/mL
- Nerve growth factor concentration ([1]; 15 µM, 24 hours, 0 µM control 0.570): 1.550 ng/mL
- Nerve growth factor concentration ([1]; 17.5 µM, 24 hours, 0 µM control 0.570): 2.150 ng/mL
- Nerve growth factor concentration ([1]; 20 µM, 24 hours, 0 µM control 0.570): 1.900 ng/mL
- Nerve growth factor concentration ([1]; 25 µM, 24 hours, 0 µM control 0.570): 1.540 ng/mL
- production of nerve growth factor by L-M cells (result in words) ([1]; 24 hours incubation): enhanced the production of nerve growth factor by L-M cells in a concentration-dependent manner
- Nerve growth factor concentration ([1]; time course: 15 µM, cultivation time 0 hour, control 0.000): 0.000 ng/mL
- Nerve growth factor concentration ([1]; time course: 15 µM, cultivation time 3 hour, control 0.028): 0.050 ng/mL
- Nerve growth factor concentration ([1]; time course: 15 µM, cultivation time 6 hour, control 0.233): 0.359 ng/mL
- Nerve growth factor concentration ([1]; time course: 15 µM, cultivation time 12 hour, control 0.575): 0.686 ng/mL
- Nerve growth factor concentration ([1]; time course: 15 µM, cultivation time 24 hour, control 0.658): 1.186 ng/mL
- Nerve growth factor concentration ([1]; time course: 15 µM, cultivation time 48 hour, control 0.736): 1.236 ng/mL
- Nerve growth factor concentration ([1]; time course: 17.5 µM, cultivation time 0 hour, control 0.000): 0.000 ng/mL
- Nerve growth factor concentration ([1]; time course: 17.5 µM, cultivation time 3 hour, control 0.028): 0.054 ng/mL
- Nerve growth factor concentration ([1]; time course: 17.5 µM, cultivation time 6 hour, control 0.233): 0.205 ng/mL
- Nerve growth factor concentration ([1]; time course: 17.5 µM, cultivation time 12 hour, control 0.575): 0.635 ng/mL
- Nerve growth factor concentration ([1]; time course: 17.5 µM, cultivation time 24 hour, control 0.658): 1.535 ng/mL
- Nerve growth factor concentration ([1]; time course: 17.5 µM, cultivation time 48 hour, control 0.736): 1.492 ng/mL
- Nerve growth factor concentration ([1]; time course: 20 µM, cultivation time 0 hour, control 0.000): 0.000 ng/mL
- Nerve growth factor concentration ([1]; time course: 20 µM, cultivation time 3 hour, control 0.028): 0.082 ng/mL
- Nerve growth factor concentration ([1]; time course: 20 µM, cultivation time 6 hour, control 0.233): 0.179 ng/mL
- Nerve growth factor concentration ([1]; time course: 20 µM, cultivation time 12 hour, control 0.575): 0.581 ng/mL
- Nerve growth factor concentration ([1]; time course: 20 µM, cultivation time 24 hour, control 0.658): 1.681 ng/mL
- Nerve growth factor concentration ([1]; time course: 20 µM, cultivation time 48 hour, control 0.736): 1.874 ng/mL
- Increase in HGF production ([2]; 20 µM): 144%
- Increase in HGF production ([2]; 40 µM): 218%
- Increase in HGF production ([2]; 160 µM): 238%
- amount of HGF produced as compared with the negative control (result in words) ([2]; negative control: distilled water): significantly increased
- production of h-IGF-1 in Hs68 cells (result in words) [3]: h-IGF-1 production was observed from 1-hour to 6 hours after the addition
- death after single oral dose (mouse): no example of death was observed
